US12440529B2, “Topical Croton lechleri compositions and their use in the treatment of a bacterial colonization or primary or secondary bacterial infection of an underlying skin disorder” (ALPHYN BIOLOGICS, INC., priority 2020, dated 2025)
Converted amounts (≈) assume the structure as drawn.

Experiments:
[1] = tested on: S. pyogenes (Erythromycin and Tetracycline resistant strains); experiment: MIC/MBC assay (2-fold microdilution, CAMHB with […] laked horse blood); format: cell-based; details: Streptococcus pyogenes
Description: (§1) Tables 26 and 27 show an assay whose setup is same as what was used for screening S. aureus and P. aeruginosa (i.e. 2-fold microdilution). The 20 strains of S. pyogenes assayed were selected from the two rounds of antibiotic screening to identify Erythromycin and Tetracycline resistant strains. […] For this feasibility study, AB-101 Lot 1 and Lot 2 was used. P. aeruginosa ATCC 27853 was tested as a positive control for AB-101 activity.

cells = details: Chen, Planta Med. 60 (1994), cited from earlier work; for healing effects: Ecuadorian sap; for effect on cell proliferation: compounds obtained through extraction
[2] = tested on: MRSA strains (Mupirocin-resistant and Mupirocin-susceptible); experiment: In vitro MIC/MBC assay (2-fold microdilution), S. aureus strain panel; format: cell-based, Staphylococcus aureus
Description: (§2) AB-101 was tested against an extensive variety of bacterial strains, including Mupirocin-resistant MRSA, Mupirocin-resistant MSSA, Mupirocin-susceptible MSSA, Mupirocin-susceptible MRSA, and other skin-related pathogens.
(§3) Measures included the minimum inhibitory concentration (MIC) which is the lowest concentration of AB-101 that prevents visible growth of the bacterium or pathogen, and minimum bactericidal concentration (MBC) which is the lowest concentration of an antibacterial agent required to kill a bacterium.
(§4) AB-101 Lots 01, 02 and a purified extract of taspine for MIC are compared. […] Taspine may have additional synergistic benefits to be included in the whole extract in the final product for the effective treatment of a bacterial colonization or primary or secondary bacterial infection of an underlying skin disorder.
as §4, with “taspine for MBC are compared.” for “taspine for MIC are compared.”, “treatment of bacterial colonization” for “treatment of a bacterial colonization”
as §1

[3] = tested on: MSSA strains (Mupirocin-resistant and Mupirocin-susceptible; QC ATCC 29213); experiment: as above; format: cell-based, Staphylococcus aureus; details: MSSA
Description: as §2, §3, §4
as §4, with “taspine for MBC are compared.” for “taspine for MIC are compared.”, “treatment of bacterial colonization” for “treatment of a bacterial colonization”
as §1

[4] = highest taspine concentration tested 10 μg/mL (50% relative to AB-101)

For `CN[C@H](CC(C)C)C(=O)N[C@H]1C(=O)N[C@@H](CC(N)=O)C(=O)N[C@H]2C(=O)N[C@H]3C(=O)N[C@H](C(=O)N[C@H](C(=O)O)c4cc(O)cc(O)c4-c4cc3ccc4O)[C@H](O)c3ccc(c(Cl)c3)Oc3cc2cc(c3O[C@@H]2O[C@H](CO)[C@@H](O)[C@H](O)[C@H]2O[C@H]2C[C@](C)(N)[C@H](O)[C@H](C)O2)Oc2ccc(cc2Cl)[C@H]1O` [Vancomycin], the MIC ([1]; S. pyogenes strain 1744264) was 0.5 µg/mL (≈ 0.345 µM), the MIC ([1]; S. pyogenes strain 1744265) was 8 µg/mL (≈ 5.52 µM) and the MIC ([1]; S. pyogenes strain 1744271) was 0.5 µg/mL (≈ 0.345 µM). It also gave an MIC ([1]; S. pyogenes strain 1744272) of 1 µg/mL (≈ 0.69 µM), an MIC ([1]; S. pyogenes strain 1744275) of 0.25 to 0.5 µg/mL (≈ 0.173 to 0.345 µM) and an MIC ([1]; S. pyogenes strain 1744277) of 4 µg/mL (≈ 2.76 µM). The MIC ([1]; S. pyogenes strain 1744285) was 0.5 µg/mL (≈ 0.345 µM), the MIC ([1]; S. pyogenes strain 2065754) was 0.5 µg/mL (≈ 0.345 µM) and the MIC ([1]; S. pyogenes strain 2065755) was 0.5 µg/mL (≈ 0.345 µM). For the same molecule, the MIC ([1]; S. pyogenes strain 2065756) was 0.5 µg/mL (≈ 0.345 µM), the MIC ([1]; S. pyogenes strain 2065757) was 0.5 µg/mL (≈ 0.345 µM) and the MIC ([1]; S. pyogenes strain 2065759) was 0.5 µg/mL (≈ 0.345 µM). For the same molecule, the MIC ([1]; S. pyogenes strain 2065760) was 0.5 µg/mL (≈ 0.345 µM), the MIC ([1]; S. pyogenes strain 2065761) was 0.5 µg/mL (≈ 0.345 µM) and the MIC ([1]; S. pyogenes strain 2065762) was 0.5 µg/mL (≈ 0.345 µM). For the same molecule, the MIC ([1]; S. pyogenes strain 2065763) was 0.5 µg/mL (≈ 0.345 µM), the MIC ([1]; S. pyogenes strain 2065765) was 2 to 4 µg/mL (≈ 1.38 to 2.76 µM) and the MIC ([1]; S. pyogenes strain 20658748) was 0.25 to 0.5 µg/mL (≈ 0.173 to 0.345 µM). For the same molecule, the MIC ([1]; S. pyogenes strain 20658749) was 0.5 µg/mL (≈ 0.345 µM) and the MIC ([1]; S. pyogenes strain 20658750) was 0.5 µg/mL (≈ 0.345 µM).
For `COc1ccc([C@H]2Oc3c(OC)cc(CCCO)cc3[C@@H]2CO)cc1OC` [dimethylcedrusin], the healing effects (cells) is listed as “little healing effects”.
For `Oc1cc(O)c2c(c1)O[C@H](c1cc(O)c(O)c(O)c1)[C@@H](O)C2` [gallocatechin], the “effect on cell proliferation” value (cells) is listed as “slightly stimulating”.
For `COc1ccc2c(=O)oc3c(OC)cc(CCN(C)C)c4c(=O)oc1c2c34` [taspine], the “activity by MBC” value [2] was “does not have activity”, the “activity by MIC” value [2, 4] was “does not have activity” and the “activity by MBC” value [3] was “does not have activity”. For the same molecule, the “activity by MIC” value [3, 4] was “does not have activity” and the healing effects (cells) was “little healing effects”.
For epicatechin, the “effect on cell proliferation” value (cells) is listed as “little effect”.
For epigallocatechin [epigalocatechin], the “effect on cell proliferation” value (cells) is listed as “slightly stimulating”.
